“Also recorded” adds a separate entry of the source. Where two headings read alike, the source gives them in different places.
Legend:
[1] = tested on: HCC-1937 cells; conditions: human, 24 h, 5 μM
Procedure: (§1) The cell lines were cultured in Dulbecco's Modified Eagle's Medium and Roswell Park Memorial Institute (RPMI) as per ATCC recommendation. Media was supplemented with 10% FBS, 2 mM L-glutamine, 100 U/ml penicillin, and 100 mg/ml streptomycin and incubated at 37° C. in a 5% CO2 air humidified atmosphere.
(§2) For the in vitro cytotoxicity studies, cells were seeded in 96-well plates with approximately 5000-8000 cells per well, depending upon the cell's exponential growth.
(§3) For cytotoxic response, cells were analyzed using the MTT reagent dissolved in PBS (1 mg/ml) at pH 7.4. […] Cells were then incubated again for 2-4 hours at 37° C., after which time the MTT reagent was added and the cells were incubated an additional 2 hours. Following this, the media was supplanted by DMSO, and the plates were put on a shaker for 15 min. The absorbance was measured at 570 nm using a high-performance multi-mode plate reader (Synergy 2, BioTek). The percentage of surviving cells was calculated by comparing the treated cells' absorbance and legitimate controls cells. The same procedure was followed for all the cell lines and later calculate the percentage of viable cells independently.
(§4) Each histogram's columns indicate the percent of live/viable cells relative to their DMSO-treated controls.

[2] = tested on: MDA-MB-468 cells; assay: MTT cytotoxicity assay in MDA-MB-468 cells; format: cell-based; conditions: for Cell viability inhibition in combination with cisplatin compared with SNI-1: MDA-MB-468, 5 μM compound + 20 μM cisplatin; for Cell viability inhibition as single agent compared with SNI-1: MDA-MB-468, single agent; for Cell viability inhibition (%) (Single agent) MDA-MB-468: MTT, SNI analogs 5 μM, doxorubicin 5 μM, cisplatin 20 μM; for Cytotoxicity in combination with doxorubicin compared with SNI-1: MDA-MB-468, 5 μM compound + 5 μM doxorubicin
Procedure: as §1, §2, §3

[3] = tested on: MDA-MB-231 cells; assay: MTT cytotoxicity assay in MDA-MB-231 cells; format: cell-based; conditions: for cytotoxicity at 5 µM: Homo sapiens; for Inhibition of viabilities as single agent compared with SNI-1: 24 h or 48 h
Procedure: Here, SNI-1 analogs were synthesized by incorporating combinations of substitutions on Rings A and C (FIG. 8). The efficacy of these compounds was analyzed in two different cell lines: MDA-MB-468 and MDA-MB-231. […] The duration of treatment time was 24 h for […] and 24 h and 48 h for MDA-MB-231 cells. These cells are a more aggressive form of TNBC cells. It expresses both epidermal growth factor (EGF) and transforming growth factor-alpha (TGF alpha) receptors.

[4] = tested on: MDA-MB-231 cells; conditions: MDA-MB-231, 4T1 and resistant TNBC cells; 5 μM SNI-1 + 20 μM cisplatin; cited from earlier work
[5] = tested on: 4T1 TNBC; conditions: cited from earlier work
[6] = molecular target: T1, CARP-1 and NEMO binding (Homo sapiens, UniProt Q8IX12); conditions: biochemical mechanism; cited from earlier work
T1 sequence (Q8IX12 1-1150): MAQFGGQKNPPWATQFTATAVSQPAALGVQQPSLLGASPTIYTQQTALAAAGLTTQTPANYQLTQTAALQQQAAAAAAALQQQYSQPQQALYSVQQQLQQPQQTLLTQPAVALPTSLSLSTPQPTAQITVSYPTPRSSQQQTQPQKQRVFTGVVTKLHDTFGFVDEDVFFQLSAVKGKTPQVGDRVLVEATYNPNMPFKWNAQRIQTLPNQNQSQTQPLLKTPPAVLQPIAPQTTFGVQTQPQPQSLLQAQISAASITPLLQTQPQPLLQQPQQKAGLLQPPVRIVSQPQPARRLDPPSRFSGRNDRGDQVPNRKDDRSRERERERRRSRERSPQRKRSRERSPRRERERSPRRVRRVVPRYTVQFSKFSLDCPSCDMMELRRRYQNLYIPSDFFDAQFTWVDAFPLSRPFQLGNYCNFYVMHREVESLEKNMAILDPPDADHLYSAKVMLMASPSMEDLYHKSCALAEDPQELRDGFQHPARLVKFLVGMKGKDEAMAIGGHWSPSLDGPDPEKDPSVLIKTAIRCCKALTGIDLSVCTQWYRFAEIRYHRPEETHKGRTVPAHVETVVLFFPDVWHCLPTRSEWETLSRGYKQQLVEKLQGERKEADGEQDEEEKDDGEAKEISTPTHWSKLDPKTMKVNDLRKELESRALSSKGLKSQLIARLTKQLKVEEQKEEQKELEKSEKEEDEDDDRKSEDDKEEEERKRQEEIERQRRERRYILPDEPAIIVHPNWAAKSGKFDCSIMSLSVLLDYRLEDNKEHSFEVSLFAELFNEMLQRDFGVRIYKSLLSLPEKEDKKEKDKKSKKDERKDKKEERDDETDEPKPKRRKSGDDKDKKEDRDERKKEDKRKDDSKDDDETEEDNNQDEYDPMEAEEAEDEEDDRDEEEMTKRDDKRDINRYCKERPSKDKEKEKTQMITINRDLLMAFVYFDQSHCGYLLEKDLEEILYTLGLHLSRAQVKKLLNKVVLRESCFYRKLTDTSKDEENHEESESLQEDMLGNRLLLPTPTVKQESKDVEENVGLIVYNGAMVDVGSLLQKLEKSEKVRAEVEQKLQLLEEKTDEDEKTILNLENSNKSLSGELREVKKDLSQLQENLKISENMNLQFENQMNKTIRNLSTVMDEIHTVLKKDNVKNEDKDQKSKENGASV

[7] = tested on: HCC-1937 cells; assay: MTT cytotoxicity assay in HCC-1937 cells (BRCA-1 mutation); conditions: 24 h
Procedure: as §1, §2, §3, §4

[8] = Homo sapiens, MDA-MB-468, 5 μM compound + 5 μM doxorubicin, 24 h, read-out: Cell viability inhibition (%) with Doxorubicin MDA-MB-468
[9] = MDA-MB-231, 5 μM compound + 5 μM doxorubicin, 24 h, read-out: Cell viability inhibition (%) with Doxorubicin MDA-MB-231
[10] = single agent, SNI analogs 5 μM, doxorubicin 5 μM

| Compound | Cell viability inhibition (%) Single-agent HCC-1937 [1] [%] | cytotoxicity at 5 µM [2, 8] [%] | Cell viability inhibition in combination with cisplatin compared with SNI-1 ([2]; 24 h) | Cell viability inhibition (%) (Single agent) MDA-MB-468 ([2]; single agent, 24 h) | cytotoxicity at 5 µM [3, 9] [%] | Cell viability inhibition (%) Single-agent MDA-MB-231 [3, 10] [%] | further results |
| --- | --- | --- | --- | --- | --- | --- | --- |
| NS(=O)(=O)c1ccc(-n2nnnc2SCC(=O)c2ccc(O)c(O)c2)cc1 [GL-252, 4-(5-((2-(3,4-dihydroxyphenyl)-2-oxoethyl)thio)-1H-tetrazol-1-yl)benzenesulfonamide] | ~10 | 62 | slightly higher viability inhibition compared with cisplatin and SNI-1 in combination or cisplatin alone; also recorded: viability inhibition equal to or better than parent SNI-1 | 18 |  |  | Cell viability inhibition as single agent compared with SNI-1 ([2]; 5 μM, 24 h): greater cell viability inhibition as a single agent when compared to SNI-1 |
| NS(=O)(=O)c1ccc(-n2nnnc2SCC(=O)c2ccc(N3CCOCC3)cc2)cc1 [GL-343, 4-(5-((2-(4-morpholinophenyl)-2-oxoethyl)thio)-1H-tetrazol-1-yl)benzenesulfonamide] | ~1 | ~57 |  | ~2 | ~79 | ~36 | cytotoxicity at 5 µM ([3]; MDA-MB-231, single agent, 5 μM, read-out: Greater inhibition of cell viability when compared with SNI-1 as a single agent): ~30%; Cytotoxicity in combination with doxorubicin compared with SNI-1 ([3]; MDA-MB-231, 5 μM compound + 5 μM doxorubicin, 24 h): much better cytotoxicity when compared with SNI-1; Inhibition of viabilities as single agent compared with SNI-1 ([3]; MDA-MB-231, single agent, 5 μM): greater inhibition of viabilities than SNI-1 |
| Cc1ccc(-n2nnnc2SCC(=O)c2ccc(O)c(O)c2)cc1 [SNI-1, 1-(3,4-dihydroxyphenyl)-2-((1-(p-tolyl)-1H-tetrazol-5-yl)thio)ethan-1-one] | 11 | ~75 |  | 10 | ~77 | ~8 | Loss of viability in combination with cisplatin (previous studies) [4]: significant loss of viability; Response as a single agent in the syngeneic 4T1 TNBC model [5]: failed its response; Binding with CARP-1 and inhibition of its interaction with NEMO [6]: binds with CARP-1 and inhibits its interaction with NEMO |
| O=C(CSc1nnnn1-c1ccc(Cl)cc1Cl)c1ccc(O)c(O)c1 [GL-341, 2-((1-(2,4-dichlorophenyl)-1H-tetrazol-5-yl)thio)-1-(3,4-dihydroxyphenyl)ethan-1-one] | ~6 | ~49 | greater inhibitory effect | ~3 | ~68 | ~21 | Efficacy in combination with cisplatin compared with SNI-1 ([3]; MDA-MB-231, 5 μM compound + 20 μM cisplatin, 48 h): better efficacy when used in combination with cisplatin compared to SNI-1 and cisplatin itself; Inhibition of viabilities as single agent compared with SNI-1 ([3]; MDA-MB-231, single agent, 5 μM): greater inhibition of viabilities than SNI-1; Cytotoxicity in combination with doxorubicin compared with SNI-1 ([2]; 24 h): slightly higher cytotoxicity |
| Cc1ccc(-n2nnnc2SCC(=O)c2ccc(N3CCOCC3)cc2)cc1 [GL-269, 1-(4-morpholinophenyl)-2-((1-(p-tolyl)-1H-tetrazol-5-yl)thio)ethan-1-one] | ~10 | 53 | much better activity in combination with cisplatin; also recorded: viability inhibition equal to or better than parent SNI-1 | 37 |  |  |  |
| CCOC(=O)c1ccc(-n2nnnc2SCC(=O)c2ccc(O)c(O)c2)cc1 [GL-251, Ethyl 4-(5-((2-(3,4-dihydroxyphenyl)-2-oxoethyl)thio)-1H-tetrazol-1-yl)benzoate] |  |  |  |  |  |  | Cell viability inhibition as single agent compared with SNI-1 ([2]; 5 μM, 24 h): greater cell viability inhibition as a single agent when compared to SNI-1 |
| Cc1ccc(-n2nnnc2SCC(=O)c2ccc3c(c2)OCCO3)cc1 [GL-268, 1-(2,3-dihydrobenzo[b][1,4]dioxin-6-yl)-2-((1-(p-tolyl)-1H-tetrazol-5-yl)thio)ethan-1-one] |  |  | viability inhibition equal to or better than parent SNI-1 |  |  |  |  |
| COc1ccc(C(=O)CSc2nnnn2-c2ccc(C)cc2)cc1OC [GL-339, 1-(3,4-dimethoxyphenyl)-2-((1-(p-tolyl)-1H-tetrazol-5-yl)thio)ethan-1-one] |  |  | greater inhibition in combination with cisplatin |  |  |  |  |
| O=C(CSc1nc(-c2ccccc2)cs1)c1ccc(O)c(O)c1 [GL-216] |  |  | viability inhibition equal to or better than parent SNI-1 | 10 |  |  | Cell viability inhibition (%) with Cisplatin HCC-1937 ([7]; 5 μM compound + 20 μM cisplatin): ~46%; Cell viability inhibition (%) Single-agent HCC-1937 ([7]; single agent, SNI analogs 5 μM, cisplatin 20 μM): ~5%; Cell viability inhibition (%) with Doxorubicin MDA-MB-468 ([2]; 5 μM compound + 5 μM doxorubicin, 24 h): ~80% |
| COc1cccc2c1C(=O)c1c(O)c3c(c(O)c1C2=O)C[C@@](O)(C(=O)CO)C[C@@H]3O[C@H]1C[C@H](N)[C@H](O)[C@H](C)O1 [Doxorubicin, reference compound] |  |  |  |  |  |  | cytotoxicity at 5 µM ([3]; MDA-MB-231, single agent, SNI analogs 5 μM, doxorubicin 5 μM, read-out: Cell viability inhibition (%) Single-agent MDA-MB-231): ~56%; cytotoxicity at 5 µM ([2]; Homo sapiens, MDA-MB-468, 24 h, read-out: Cell viability inhibition (%) (Single agent) MDA-MB-468): ~39% |
| O=C(CSc1nnnn1-c1ccc([N+](=O)[O-])cc1)c1ccc(O)c(O)c1 [GL-342, 1-(3,4-dihydroxyphenyl)-2-((1-(4-nitrophenyl)-1H-tetrazol-5-yl)thio)ethan-1-one] | ~21 | ~50 | greater inhibitory effect | ~22.27 | ~73 | ~23 | Activity in combination with cisplatin compared with SNI-1 ([7]; HCC-1937, 5 μM compound + 20 μM cisplatin): more cell viability inhibition than SNI-1 in combination with cisplatin; Inhibition of viabilities as single agent compared with SNI-1 ([3]; MDA-MB-231, single agent, 5 μM): more cell viability inhibition; also recorded: greater inhibition of viabilities than SNI-1; Extra loss of cell viability versus parent SNI-1 at 5 µM ([2]; Homo sapiens, MDA-MB-468 (FIG. 9), single agent, 5 μM, 24 h, read-out: Greater loss of cell viability as compared to parent SNI-1): ~10%; Cytotoxicity in combination with doxorubicin compared with SNI-1 ([2]; 24 h): slightly higher cytotoxicity; Cell viability inhibition as single agent compared with SNI-1 ([2]; 5 μM, 24 h): more cell viability inhibition |

— US20250257058A1, “COMPOSITIONS AND METHODS FOR INHIBITING CARP-1 BINDING TO NEMO” (The United States Government as represented by the …, priority 2022, published 2025)
